Here are results for two compounds from paper PMC12656329, “Specific Hepatorenal Toxicity and Cross-Species Susceptibility of Eight Representative Pesticides” (Toxics, 2025).

Entries after “also recorded” stand apart in the source; their conditions may differ. Read-outs that look alike come from different tables or passages of the source.

One series relates to Colinus virginianus. The following applies: in vivo; cited from earlier work.
In the next series the test system is IAR hepatocytes. Put plainly: CCK-8 cytotoxicity assay, IAR. Format: cell-based. The following applies: Rattus norvegicus, Hepatocyte; CCK-8, 24 h exposure. On the procedure:
(§1) Human embryonic kidney 293T (HEK293T) cells and rat renal NRK cells were maintained in high-glucose DMEM supplemented with 10% fetal bovine serum (FBS) and 1% penicillin–streptomycin at 37 °C under 5% CO2 until reaching 70–80%. Human liver CCC-HEL-1 cells were cultured under identical conditions but with 20% FBS, while rat normal hepatocytes were grown in high-glucose MEM containing 20% FBS and 1% penicillin–streptomycin. Stock solutions (500 g/L) of eight pesticide standards were prepared in dimethyl sulfoxide (DMSO) and stored at −20 °C. Working concentrations were freshly diluted in serum-containing culture medium prior to each experiment.
(§2) The cytotoxicity of eight pesticides on four mammalian cell lines was assessed using the Cell Counting Kit-8 (CCK-8) assay. Initially, stock solutions of each pesticide were prepared by dissolving the compound in dimethyl sulfoxide (DMSO) to a final concentration of 500 g/L. For the assay, cells were seeded into 96-well plates at a density of 2 × 10^4 cells per well in 100 µL of medium and incubated for 24 h at 37 °C under a 5% CO2 atmosphere to allow for attachment. Subsequently, the culture medium was replaced with fresh medium containing the pesticides at a series of final concentrations (0, 10, 100, 200, 400, 800, 1000, and 2500 mg/L). Pesticide working concentrations were prepared through serial dilution of the 500 g/L DMSO stock solution, resulting in variable final DMSO concentrations across treatment groups (ranging from 0.002% to 0.5% v/v). A media-only blank (no cells) was included for background absorbance correction, and a solvent control (0.1% DMSO, no pesticide) was used to account for any vehicle effects. All conditions were performed in five replicates. […] At DMSO concentrations ranging from 0.1% to 0.2%, the viability of all four cell lines remained stable above 80%. At a 1% DMSO concentration, the viability of all four cell types was around 50% or higher (Supplementary Figure S5). Following 24 h of exposure, 10 µL of CCK-8 reagent was added to each well. Absorbance Measurement: After an additional 1 h of incubation in the dark, the optical density (OD) at 450 nm was recorded using a microplate reader. Cell viability was calculated by comparing the OD values of treated groups with those of the blank control. Although some test concentrations exceeded the water solubility of the pesticides, the combination of DMSO and serum in the culture medium maintained a uniform exposure system. No precipitation was observed during the experiment, ensuring that the measured effects are attributed to the bioavailable fraction of the compound. […]
(§3) 1. Pesticide Exposure: After removing the medium, fresh medium containing gradient concentrations (0–2500 mg/L) of each pesticide was added (five replicates per concentration).
(§4) Following 24 h of exposure, 10 µL of CCK-8 reagent was added to each well.
(§5) 2. Absorbance Measurement: After 1 h of dark incubation, the OD at 450 nm was measured using a microplate reader.
(§6) 3. Cell Viability Calculation: Viability was determined by comparing the OD values of treated groups to the blank control. […]
Background: Tetrazolium dyes change colour on reduction, which living cells bring about.

In series [1] the test system is CCC-HEL-1 hepatocytes. Put plainly: CCK-8 cytotoxicity assay, CCC-HEL-1. Format: cell-based. To be noted: Homo sapiens, Hepatocyte; CCK-8, 24 h exposure. As to the method: as §1, §2, §3, §4, §5, §6
Series [2] relates to 293T renal cells. Kind of series: CCK-8 cytotoxicity assay, 293T. Format: cell-based, human. The following applies: Homo sapiens, HEK-293T, 24 h, CCK-8, 24 h exposure. As to the method: as §1, §2, §3, §4, §5, §6
The test system of another series is NRK renal cells. Kind of series: CCK-8 cytotoxicity assay, NRK. Format: cell-based. To be noted: Rattus norvegicus; CCK-8, 24 h exposure. On the procedure:
as §1, §2, §3, §4, §5, §6

For series [3] the following is noted: ref PPDB: Pesticide Properties DataBase, cited from earlier work.
For another series, the system named is MRP2 in 293T renal cells. Kind of series: MRP2 immunofluorescence staining, 293T. To be noted: 293T cells, 24 h at IC50, immunofluorescence, vs untreated controls. Format: cell-based, human. On the procedure:
(§7) Cells were seeded at a density of 1 × 10^5 cells per well in immunofluorescence-specific glass-bottom dishes and allowed to adhere for 24 h. […] Following treatment, cells were fixed with 4% paraformaldehyde for 15 min at room temperature and permeabilized with 0.1% Triton X-100 for 10 min. Non-specific binding was blocked with 5% bovine serum albumin (BSA) for 1 h at room temperature. Cells were then incubated with primary antibody against MRP2 (1:300 dilution) overnight at 4 °C. After three washes with PBS, cells were treated with secondary antibody (rabbit anti-IgG, 1:600 dilution) for 1 h at room temperature and washed three times with PBS. Anti-MRP2 antibody (Abcam, ab172630) and Alexa Fluor® 488-conjugated anti-rabbit IgG secondary antibody (Cell Signaling Technology, Danvers, MA, USA, 4412) were used for immunofluorescence staining. Nuclei were counterstained with DAPI Staining Solution (C1005, 10 mL) (Beyotime Biotechnology, Shanghai, China). Fluorescent images were captured using a 10× inverted fluorescence microscope. Quantitative analysis of fluorescence intensity was performed using ImageJ software 2.1.0 (National Institutes of Health, Bethesda, MD, USA).

The test system of series [4] is CCC-HEL-1 hepatocytes. To be noted: CCC-HEL-1 cells, 24 h exposure at median lethal concentration, vs control.
Series [5] concerns 293T renal cells. Kind of series: ELISA of toxicity biomarkers (LDH, KIM-1) in culture supernatant, 293T. Format: cell-based, human. To be noted: 293T cells, 24 h exposure at median lethal concentration, vs control. As to the method: The levels of hepatotoxicity biomarkers (ALT, AST, ALP) and nephrotoxicity biomarkers (KIM-1, LDH) in cell culture supernatant were quantified using commercially available ELISA kits (Cloud-Clone Corp., Wuhan, China). 100 μL of the supernatant was added to the pre-coated wells and incubated according to the manufacturer’s protocol (five replicates). After washing, the appropriate detection antibody and substrate were added, and the absorbance was measured at 450 nm using microplate reader. The concentrations of the biomarkers were determined based on standard curves.
(In general: In an ELISA, binding on a coated surface is turned into a signal by an enzyme label.)

Series [6] concerns four mammalian cell lines (CCC-HEL-1, 293T, IAR, NRK). Kind of series: CCK-8 cytotoxicity, statements across the four cell lines. The following applies: CCK-8 / heatmap of OD values, cell lines as stated in the sentence. In kind it is cell-based, human and rat. As to the method:
The cytotoxicity of eight pesticides on four mammalian cell lines was assessed using the Cell Counting Kit-8 (CCK-8) assay. Initially, stock solutions of each pesticide were prepared by dissolving the compound in dimethyl sulfoxide (DMSO) to a final concentration of 500 g/L. For the assay, cells were seeded into 96-well plates at a density of 2 × 10^4 cells per well in 100 µL of medium and incubated for 24 h at 37 °C under a 5% CO2 atmosphere to allow for attachment. Subsequently, the culture medium was replaced with fresh medium containing the pesticides at a series of final concentrations (0, 10, 100, 200, 400, 800, 1000, and 2500 mg/L). Pesticide working concentrations were prepared through serial dilution of the 500 g/L DMSO stock solution, resulting in variable final DMSO concentrations across treatment groups (ranging from 0.002% to 0.5% v/v). A media-only blank (no cells) was included for background absorbance correction, and a solvent control (0.1% DMSO, no pesticide) was used to account for any vehicle effects. All conditions were performed in five replicates. […] At DMSO concentrations ranging from 0.1% to 0.2%, the viability of all four cell lines remained stable above 80%. At a 1% DMSO concentration, the viability of all four cell types was around 50% or higher (Supplementary Figure S5). Following 24 h of exposure, 10 µL of CCK-8 reagent was added to each well. Absorbance Measurement: After an additional 1 h of incubation in the dark, the optical density (OD) at 450 nm was recorded using a microplate reader. Cell viability was calculated by comparing the OD values of treated groups with those of the blank control. Although some test concentrations exceeded the water solubility of the pesticides, the combination of DMSO and serum in the culture medium maintained a uniform exposure system. No precipitation was observed during the experiment, ensuring that the measured effects are attributed to the bioavailable fraction of the compound.

The conditions of series [7]: parent compound; ref [1] (Ding et al. 2023, ref 74); cited from earlier work.
The subject of the next series is Rat. To be noted: rat, in vivo, po; cited from earlier work.
Series [8] relates to MRP2 in CCC-HEL-1 hepatic cells. Put plainly: MRP2 immunofluorescence staining, CCC-HEL-1. Format: cell-based, human. To be noted: CCC-HEL-1 cells, 24 h at IC50, immunofluorescence. On the procedure: as §7

Broadly, the IC50 is the concentration that inhibits the measured activity by half. Consider `CCCCC(C#N)(Cn1cncn1)c1ccc(Cl)cc1` (centres unmarked) [Myclobutanil, myclobutanil], for which the “Birds - Acute LD50” value with Colinus virginianus was 510 mg/kg. Moreover, the IC50 with IAR hepatocytes amounted to 567 µg/mL; with CCC-HEL-1 hepatocytes [1], 455 µg/mL; with 293T renal cells [2], 458 µg/mL; in the series with NRK renal cells it was 588 µg/mL. The “ADI - Acceptable Daily Intake” value in series [3] (Rat SF=100) was 0.025 mg kg⁻¹ bw day⁻¹. Further, the MRP2 protein level result in the series on MRP2 in 293T renal cells is “most pronounced effect”. The LDH level result in the series with CCC-HEL-1 hepatocytes [4] is on record as “LDH elevation”. Besides, the LDH release result in the series on 293T renal cells [5] is “significantly elevated LDH release”. Also, the “cytotoxicity (in words)” value in series [6] is on record as “strong cytotoxic effects”. For the same compound, the “Toxicokinetic Parameter (Concentration), mean” value in series [7] is recorded as 38.3 ng/g creatinine. Also, the “Mammals - Acute oral LD50” value in the series on Rat was 1600 mg/kg.

As to `CCCC1COC(Cn2cncn2)(c2ccc(Cl)cc2Cl)O1` (centres unmarked) [Propiconazole, propiconazole], the IC50 with IAR hepatocytes worked out at 189 µg/mL; with CCC-HEL-1 hepatocytes [1], 72.6 µg/mL; with 293T renal cells [2], 27.2 µg/mL; in the series with NRK renal cells, 203 µg/mL. Further, the “ADI - Acceptable Daily Intake” value in [3] (basis species not given) was 0.04 mg kg⁻¹ bw day⁻¹. The “MRP2 upregulation relative to controls” value in series [8] amounted to 1.5 fold. Besides, in the series on 293T renal cells [5], the LDH release result is “significantly increased; also recorded: significantly elevated LDH release”. For the same compound, the “Mammals - Acute oral LD50” value in the series on Rat was 550 mg/kg.
